Assay results: ChEMBL document CHEMBL4813929, “Isolation, Structure Determination, and Total Synthesis of Hoshinoamide C, an Antiparasitic Lipopeptide from the Marine Cyanobacterium Caldora penicillata” (J Nat Prod, 2021)

How the values were obtained:
HeLa = assay: Cytotoxicity against human HeLa cells assessed as cell growth inhibition at 10 uM measured after 72 hrs by MTT assay; assay type: cell-based
[1] = tested on: Trypanosoma brucei rhodesiense; assay: Antitrypanosomal activity against Trypanosoma brucei rhodesiense IL-1501 assessed as parasite growth inhibition incubated for 69 hrs by AlamarBlue assay; assay type: functional, organism-based; conditions: IL-1501, 69 h
Plasmodium falciparum = assay: Antiplasmodial activity against asexual Plasmodium falciparum 3D7 infected in human erythrocytes assessed as reduction in parasitemia measured after 72 hrs by LDH assay; assay type: functional, organism-based; conditions: 3D7, Erythrocyte
HL-60 = assay: Cytotoxicity against human HL-60 cells assessed as cell growth inhibition at 10 uM measured after 72 hrs by MTT assay; assay type: cell-based; conditions: hl-60, 72 h

Structure (SMILES) | Activity (HeLa) | IC50 [1] [nM] | IC50 (Plasmodium falciparum) [nM] | Activity (HL-60)
CC[C@H](C)[C@H](C(=O)N[C@@H](CCC(N)=O)C(=O)N[C@H](C(=O)N(C)[C@H](Cc1ccccc1)C(=O)N1CCC[C@H]1C(=O)OC)C(C)C)N(C)C(=O)[C@H](CC(C)C)NC(=O)CC[C@@H](C)CCCCNC(=O)CCCc1ccc(O)cc1 | Non-Toxic | 4400 | 870 | Non-Toxic
N=C(N)c1ccc(OCCCCCOc2ccc(C(=N)N)cc2)cc1 [PENTAMIDINE] | – | 1 | – | –
CC[C@H](C)[C@H](C(=O)N[C@@H](CCC(N)=O)C(=O)N[C@H](C(=O)N(C)[C@H](Cc1ccccc1)C(=O)N1CCC[C@H]1C(=O)OC)C(C)C)N(C)C(=O)[C@H](CC(C)C)NC(=O)CC[C@H](C)CCCCNC(=O)CCCc1ccc(O)cc1 | Non-Toxic | 2900 | 960 | Non-Toxic
O=C1C(O)=C([C@H]2CC[C@H](c3ccc(Cl)cc3)CC2)C(=O)c2ccccc21 [ATOVAQUONE] | – | – | 0.96 | –
